Assay results: article PMC12736255, “Reinvestigating Pyrrol-2-One-Based Compounds: From Antimicrobial Agents to Promising Antitumor Candidates” (Pharmaceuticals, 2025)

Key:
Test in all cases: NCI-60 single-dose screen
Format in all cases: cell-based
MDA-MB-231/ATCC = conditions: Homo sapiens, 10^–5 M, read-out: GI (%)
Excerpt: (§1) In the next step, all synthesized compounds were electronically submitted and accepted for testing to the National Cancer Institute (NCI) platform, for the single dose (10^−5 M) screening against a panel of 60 human tumor cell lines, representing leukemia, melanoma, and cancers of the lung, colon, central nervous system, ovary, kidney, prostate, and breast. The results are summarized in Table 2, with the best values highlighted in red (Figures S1–S14).

786-0 = conditions: Homo sapiens; 786-0, 10^–5 M; read-out: GI (%)
Excerpt: as §1

NCI-H322M = conditions: Homo sapiens, 10^–5 M, read-out: GI (%)
Excerpt: as §1

NCI-H522 = conditions: Homo sapiens; NCI-H522, 10^–5 M; read-out: GI (%)
Excerpt: as §1

COLO205 = conditions: Homo sapiens, COLO 205; COLO205, 10^–5 M; read-out: GI (%)
Excerpt: as §1

CCRF-CEM = conditions: Homo sapiens, 10^–5 M, read-out: GI (%)
Excerpt: as §1

HL-60(TB) = conditions: Homo sapiens, 10^–5 M, read-out: GI (%)
Excerpt: as §1

HOP-92 = conditions: Homo sapiens; HOP-92, 10^–5 M; read-out: GI (%)
Excerpt: as §1

SR = conditions: Homo sapiens, 10^–5 M, read-out: GI (%)
Excerpt: as §1

M14 = conditions: Homo sapiens; M14, 10^–5 M; read-out: GI (%)
Excerpt: as §1

K-562 = conditions: Homo sapiens, K562; K-562, 10^–5 M; read-out: GI (%)
Excerpt: as §1

HCC-2998 = conditions: Homo sapiens; HCC-2998, 10^–5 M; read-out: GI (%)
Excerpt: as §1

HT-29 = conditions: Homo sapiens; HT-29, 10^–5 M; read-out: GI (%)
Excerpt: as §1

KM12 = conditions: Homo sapiens; KM12, 10^–5 M; read-out: GI (%)
Excerpt: as §1

LOX IMVI = conditions: Homo sapiens, 10^–5 M, read-out: GI (%)
Excerpt: as §1

SNB-75 = conditions: Homo sapiens; SNB-75, 10^–5 M; read-out: GI (%)
Excerpt: as §1

SK-MEL-5 = conditions: Homo sapiens; SK-MEL-5, 10^–5 M; read-out: GI (%)
Excerpt: as §1

OVCAR-4 = conditions: Homo sapiens; OVCAR-4, 10^–5 M; read-out: GI (%)
Excerpt: as §1

OVCAR-8 = conditions: Homo sapiens; OVCAR-8, 10^–5 M; read-out: GI (%)
Excerpt: as §1

MALME-3M = conditions: Homo sapiens, 10^–5 M, read-out: GI (%)
Excerpt: as §1

IGROV1 = conditions: Homo sapiens, IGROV-1; IGROV1, 10^–5 M; read-out: GI (%)
Excerpt: as §1

TK-10 = conditions: Homo sapiens; TK-10, 10^–5 M; read-out: GI (%)
Excerpt: as §1

NCI-H460 = conditions: Homo sapiens; NCI-H460, 10^–5 M; read-out: GI (%)
Excerpt: as §1

SF-539 = conditions: Homo sapiens; SF-539, 10^–5 M; read-out: GI (%)
Excerpt: as §1

UACC-257 = conditions: Homo sapiens; UACC-257, 10^–5 M; read-out: GI (%)
Excerpt: as §1

CAKI-1 = conditions: Homo sapiens; CAKI-1, 10^–5 M; read-out: GI (%)
Excerpt: as §1

SK-OV-3 = conditions: Homo sapiens; SK-OV-3, 10^–5 M; read-out: GI (%)
Excerpt: as §1

OVCAR-3 = conditions: Homo sapiens; OVCAR-3, 10^–5 M; read-out: GI (%)
Excerpt: as §1

RPMI-8226 = conditions: Homo sapiens; RPMI-8226, 10^–5 M; read-out: GI (%)
Excerpt: as §1

SK-MEL-2 = conditions: Homo sapiens; SK-MEL-2, 10^–5 M; read-out: GI (%)
Excerpt: as §1

SF-268 = conditions: Homo sapiens; SF-268, 10^–5 M; read-out: GI (%)
Excerpt: as §1

SW-620 = conditions: Homo sapiens; SW-620, 10^–5 M; read-out: GI (%)
Excerpt: as §1

NCI-H23 = conditions: Homo sapiens; NCI-H23, 10^–5 M; read-out: GI (%)
Excerpt: as §1

HCT-15 = conditions: Homo sapiens; HCT-15, 10^–5 M; read-out: GI (%)
Excerpt: as §1

DU-145 = conditions: Homo sapiens; DU-145, 10^–5 M; read-out: GI (%)
Excerpt: as §1

A498 = conditions: Homo sapiens; A498, 10^–5 M; read-out: GI (%)
Excerpt: as §1

PC-3 = conditions: Homo sapiens, PC-3, PC-3, 10^–5 M; read-out: GI (%)
Excerpt: as §1

SMILES	inhibition at 10 µM (MDA-MB-231/ATCC) [%]	inhibition at 10 µM (786-0) [%]	inhibition at 10 µM (NCI-H322M) [%]	inhibition at 10 µM (NCI-H522) [%]	inhibition at 10 µM (COLO205) [%]	inhibition at 10 µM (CCRF-CEM) [%]	inhibition at 10 µM (HL-60(TB)) [%]	inhibition at 10 µM (HOP-92) [%]	inhibition at 10 µM (SR) [%]	inhibition at 10 µM (M14) [%]	inhibition at 10 µM (K-562) [%]	inhibition at 10 µM (HCC-2998) [%]	inhibition at 10 µM (HT-29) [%]	inhibition at 10 µM (KM12) [%]	inhibition at 10 µM (LOX IMVI) [%]	inhibition at 10 µM (SNB-75) [%]	inhibition at 10 µM (SK-MEL-5) [%]	inhibition at 10 µM (OVCAR-4) [%]	inhibition at 10 µM (OVCAR-8) [%]	inhibition at 10 µM (MALME-3M) [%]	also measured
O=C1C(Nc2ccc(I)cc2)=CC(c2ccc(C(F)(F)F)cc2)N1c1ccc(I)cc1 (centres unmarked) [3e]	62	76	97	53	61	100	51	62	99	64	16	0	32	35	7	100	0	100	43	78	inhibition at 10 µM (IGROV1): 12%; inhibition at 10 µM (TK-10): 100%; inhibition at 10 µM (NCI-H460): 43%; inhibition at 10 µM (SF-539): 37%; inhibition at 10 µM (UACC-257): 100%; inhibition at 10 µM (CAKI-1): 91%; inhibition at 10 µM (SK-OV-3): 50%; inhibition at 10 µM (OVCAR-3): 72%; inhibition at 10 µM (RPMI-8226): 60%; inhibition at 10 µM (SK-MEL-2): 100%; inhibition at 10 µM (SF-268): 100%; inhibition at 10 µM (SW-620): 47%; inhibition at 10 µM (NCI-H23): 11%; inhibition at 10 µM (HCT-15): 12%; inhibition at 10 µM (DU-145): 28%; inhibition at 10 µM (A498): 100%; inhibition at 10 µM (PC-3): 26%
O=C1C(Nc2ccc(I)cc2)=CC(c2cc(C(F)(F)F)cc(C(F)(F)F)c2)N1c1ccc(I)cc1 (centres unmarked) [3f]	42	29	10	34	59	100	59	19	47	0	26	2	5	13	17	100	12	69	26	0	inhibition at 10 µM (IGROV1): 0%; inhibition at 10 µM (TK-10): 57%; inhibition at 10 µM (NCI-H460): 35%; inhibition at 10 µM (SF-539): 17%; inhibition at 10 µM (UACC-257): 0%; inhibition at 10 µM (CAKI-1): 32%; inhibition at 10 µM (SK-OV-3): 10%; inhibition at 10 µM (OVCAR-3): 35%; inhibition at 10 µM (RPMI-8226): 43%; inhibition at 10 µM (SK-MEL-2): 35%; inhibition at 10 µM (SF-268): 21%; inhibition at 10 µM (SW-620): 20%; inhibition at 10 µM (NCI-H23): 12%; inhibition at 10 µM (HCT-15): 17%; inhibition at 10 µM (DU-145): 5%; inhibition at 10 µM (A498): 90%; inhibition at 10 µM (PC-3): 25%
O=C1C(Nc2ccc(I)cc2)=CC(c2ccc(O)c(O)c2)N1c1ccc(I)cc1 (centres unmarked) [3h]	42	52	34	82	98	100	100	66	100	99	89	98	96	100	57	86	94	100	37	100	inhibition at 10 µM (IGROV1): 26%; inhibition at 10 µM (TK-10): 50%; inhibition at 10 µM (NCI-H460): 98%; inhibition at 10 µM (SF-539): 72%; inhibition at 10 µM (UACC-257): 68%; inhibition at 10 µM (CAKI-1): 44%; inhibition at 10 µM (SK-OV-3): 64%; inhibition at 10 µM (OVCAR-3): 96%; inhibition at 10 µM (RPMI-8226): 100%; inhibition at 10 µM (SK-MEL-2): 100%; inhibition at 10 µM (SF-268): 82%; inhibition at 10 µM (SW-620): 100%; inhibition at 10 µM (NCI-H23): 73%; inhibition at 10 µM (HCT-15): 84%; inhibition at 10 µM (DU-145): 40%; inhibition at 10 µM (A498): 61%; inhibition at 10 µM (PC-3): > 70%
COc1ccc(C2C=C(Nc3ccc(I)cc3)C(=O)N2c2ccc(I)cc2)cc1OC (centres unmarked) [3j]	0	0	0	0	9	0	0	0	0	0	0	0	0	0	8	0	11	0	0	0	inhibition at 10 µM (IGROV1): 0%; inhibition at 10 µM (TK-10): 0%; inhibition at 10 µM (NCI-H460): 0%; inhibition at 10 µM (SF-539): 28%; inhibition at 10 µM (UACC-257): 0%; inhibition at 10 µM (CAKI-1): 5%; inhibition at 10 µM (SK-OV-3): 0%; inhibition at 10 µM (OVCAR-3): 0%; inhibition at 10 µM (RPMI-8226): 7%; inhibition at 10 µM (SK-MEL-2): 0%; inhibition at 10 µM (SF-268): 3%; inhibition at 10 µM (SW-620): 0%; inhibition at 10 µM (NCI-H23): 8%; inhibition at 10 µM (HCT-15): 0%; inhibition at 10 µM (DU-145): 0%; inhibition at 10 µM (A498): 0%; inhibition at 10 µM (PC-3): 0%
COc1cc(OC)c(C2C=C(Nc3ccc(I)cc3)C(=O)N2c2ccc(I)cc2)cc1OC (centres unmarked) [3k]	0	3	4	2	0	0	2	0	7	0	0	5	0	2	5	0	12	3	0	0	inhibition at 10 µM (IGROV1): 2%; inhibition at 10 µM (TK-10): 1%; inhibition at 10 µM (NCI-H460): 0%; inhibition at 10 µM (SF-539): 18%; inhibition at 10 µM (UACC-257): 0%; inhibition at 10 µM (CAKI-1): 15%; inhibition at 10 µM (SK-OV-3): 0%; inhibition at 10 µM (OVCAR-3): 0%; inhibition at 10 µM (RPMI-8226): 14%; inhibition at 10 µM (SK-MEL-2): 0%; inhibition at 10 µM (SF-268): 1%; inhibition at 10 µM (SW-620): 0%; inhibition at 10 µM (NCI-H23): 0%; inhibition at 10 µM (HCT-15): 0%; inhibition at 10 µM (DU-145): 0%; inhibition at 10 µM (A498): 0%; inhibition at 10 µM (PC-3): 0%
